We go through one compound from patent publication US11655239B2 (SHANGHAI INSTITUTE OF MATERIAL MEDICA, CHINESE ACADEMY OF …, priority 2019, dated 2023).

Assay [1] concerns mouse model of BLM-induced lung injury. Put plainly: mRNA levels of inflammatory cytokines in lung tissue (qRT-PCR). Type of assay: in vivo. The following applies: mice, 30, 60, 90 mg/kg. As for the experimental part: The experiment used qRT-PCR technology to determine the mRNA levels of pro-inflammatory cytokines in lung tissue. Real-time quantitative PCR was used to detect the mRNA levels of TNF-α, IL-6, IL-1β, TGF-β and others.
(§1) About 30 mg of cryopreserved lung tissue was weighed and homogenized and lysed by adding 200 μL of Trizol (Takara, 9109 #). The fluid after the lysis in the well was collected by the RNA sterilization-grade pipette tip and transferred to the corresponding sterile EP tube. […] of chloroform was added, shaken vigorously for 30 sec, and centrifuged for 15 minutes in a centrifuge at 4° C. at 12000 rpm. The upper aqueous layer was transferred to a new EP tube, an equal volume of isopropanol was used to precipitate the RNA in the aqueous phase, and the tube was allowed to stand at −20° C. for more than 1 hr. And then the tube was centrifuged for 15 min at 4° C. at 12000 rpm, and the supernatant was discarded. 75% ethanol was added to wash the RNA pellet, and then the tube was centrifuged for 15 min at 4° C. at 12000 rpm, and the supernatant was discarded. The tube was placed at room temperature for 10-20 min to dry the RNA pellet. 25-200 μL of RNase-free water was added for dissolution and stored at −80° C.
PrimeScript™ RT Master Mix (Takara, RR036A) was selected for mRNA reverse transcription. Please refer to the instructions for the system. […]
(Real-time PCR tracks product formation cycle by cycle.)

The target of another assay is PDGFR-β (Homo sapiens (Human), UniProt P09619). Put plainly: Enzyme selectivity test (ELISA), PDGFR-β. Format: biochemical. As to the method: (§2) 1) Enzyme reaction substrate Poly(Glu, Tyr) 4:1 was diluted to 20 μg/mL with potassium-free PBS (10 mM sodium phosphate buffer, 150 mM NaCl, pH 7.2-7.4), and the microtiter plate was coated with 125 μL/well and placed at 37° C. for 12-16 hours of reaction. The liquid in the well was discard. The plate was washed three times with T-PBS (potassium-free PBS containing 0.1% Tween-20, 200 μL/well), 5 minutes each time. The ELISA plate was dried in an oven at 37° C. for 1 to 2 hours.
Sequence of PDGFR-β (P09619 33-1106, species assumed): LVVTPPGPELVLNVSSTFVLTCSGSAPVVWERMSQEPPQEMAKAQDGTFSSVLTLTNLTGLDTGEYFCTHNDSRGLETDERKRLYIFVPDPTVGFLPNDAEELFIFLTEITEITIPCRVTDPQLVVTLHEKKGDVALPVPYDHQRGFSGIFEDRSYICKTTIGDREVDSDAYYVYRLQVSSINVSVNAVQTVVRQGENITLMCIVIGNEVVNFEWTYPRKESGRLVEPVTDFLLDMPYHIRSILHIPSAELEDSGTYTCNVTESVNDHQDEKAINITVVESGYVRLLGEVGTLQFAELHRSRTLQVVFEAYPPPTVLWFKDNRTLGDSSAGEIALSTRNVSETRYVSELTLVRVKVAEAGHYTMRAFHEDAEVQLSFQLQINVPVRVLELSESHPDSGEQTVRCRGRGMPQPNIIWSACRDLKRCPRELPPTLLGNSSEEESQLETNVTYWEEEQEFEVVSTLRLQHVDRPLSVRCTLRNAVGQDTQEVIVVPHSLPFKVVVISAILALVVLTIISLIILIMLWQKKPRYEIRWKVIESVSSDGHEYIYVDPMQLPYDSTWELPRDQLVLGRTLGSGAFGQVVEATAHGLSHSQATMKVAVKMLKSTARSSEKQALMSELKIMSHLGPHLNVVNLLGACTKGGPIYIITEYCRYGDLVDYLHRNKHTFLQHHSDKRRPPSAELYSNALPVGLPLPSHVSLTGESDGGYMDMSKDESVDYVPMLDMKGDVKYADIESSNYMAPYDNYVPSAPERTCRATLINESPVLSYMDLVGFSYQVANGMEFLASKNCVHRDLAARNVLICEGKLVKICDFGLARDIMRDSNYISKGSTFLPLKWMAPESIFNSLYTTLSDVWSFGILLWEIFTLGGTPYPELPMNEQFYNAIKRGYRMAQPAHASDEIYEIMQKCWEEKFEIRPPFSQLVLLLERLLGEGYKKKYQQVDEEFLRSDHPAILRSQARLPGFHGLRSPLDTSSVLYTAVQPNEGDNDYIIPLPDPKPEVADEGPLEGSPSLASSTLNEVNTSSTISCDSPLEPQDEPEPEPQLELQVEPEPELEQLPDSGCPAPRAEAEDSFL
(§3) 2) Reaction buffer (50 mM HEPES pH 7.4, 50 mM MgCl2, 0.5 mM MnCl2, 0.2 mM Na3VO4, 1 mM DTT) diluted ATP solution (49 μL) was added to each well, 1 μL of the compound to be tested was added to each well, and then 50 μL of DDR2 kinase domain recombinant protein diluted in the reaction buffer was added to start the reaction. Two control wells without ATP were set in each experiment. The plate placed on a shaker (100 rpm) at 37° C. for 1 hour of reaction. The liquid in the well was discarded and the plate was washed three times with T-PBS.
(§4) 3) Antibody PY99 dilution solution (the antibody was diluted 1:500 with T-PBS containing BSA 5 mg/mL) was added at 100 μL/well, and shaken on a shaker at 37° C. for 0.5 hour of reaction. The liquid in the well was discarded and the plate was washed three times with T-PBS.
(§5) 4) Horseradish peroxidase labeled goat anti-murine secondary antibody dilution solution (the antibody is diluted 1:2000 with T-PBS containing BSA 5 mg/ml) was added at 100 μL/well, and shaken on a shaker at 37° C. for 0.5 hour of reaction. The liquid in the well was discarded and the plate was washed three times with T-PBS.
(§6) 5) 2 mg/ml of OPD color developing solution [diluted with 0.1 M citric acid-sodium citrate buffer (pH=5.4) containing 0.03% H2O2] was added at 100 μL/well and reacted for 1 to 10 minutes at 25° C. in the dark.
(§7) 6) 2M H2SO4 was added at 50 μL/well to stop the reaction, and a tunable wavelength microplate reader VERSAmax was used for reading at a wavelength of 490 nm.
(§8) The IC50 value was obtained by four-parameter regression using the software that came with the microplate reader. […]

Another assay has as its target ErbB4 (Homo sapiens (Human), UniProt Q15303). The assay is described as follows: Enzyme selectivity test (ELISA), ErbB4. Type of assay: biochemical. As to the method:
as §2, §3, §4, §5, §6, §7, §8
(In general: ELISA stands for enzyme-linked immunosorbent assay.)

Assay [2] has as its system pulmonary fibrosis induced by bleomycin in mice. The assay is described as follows: mRNA levels of fibrosis-related markers in lung tissue (qRT-PCR). Format: in vivo, mouse. The following applies: 60, 90 mg/kg. As for the experimental part:
as §1
PrimeScript™ RT Master Mix (Takara, RR036A) was selected for mRNA reverse transcription. Please refer to the instructions for the system. In short, 1 μg of mRNA was added to a 20 μL system, mixed and then kept at a constant temperature in a 37° C. water bath for 15 minutes, and then the enzyme was inactivated at 85° C. for 5 seconds. After centrifugation, double distilled water was used to dilute 10 times.
Q-PCR technology used 2×SYBR Green qPCR Master Mix (B21202, Biomake), and the reaction system could be prepared according to the instruction (10 μL of 2×SYBGreen, 8.8 μL of cDNA template, 1.2 μL of 5 μM primer Mix). The reaction conditions are: pre-denaturation at 95° C. for 5 min, denaturation at 95° C. for 30 sec, annealing at 60° C. for 30 sec, and extension at 72° C. for 30 sec, the number of reaction cycles is 40 cycles.
The experiment used qRT-PCR technology to determine the mRNA levels of fibrosis-related markers in lung tissue.
The experimental method was the same as that for the evaluation of the mRNA levels of inflammatory cytokines.

Structures are written as SMILES.

Sequence of ErbB4 (Q15303 26-1308, species assumed): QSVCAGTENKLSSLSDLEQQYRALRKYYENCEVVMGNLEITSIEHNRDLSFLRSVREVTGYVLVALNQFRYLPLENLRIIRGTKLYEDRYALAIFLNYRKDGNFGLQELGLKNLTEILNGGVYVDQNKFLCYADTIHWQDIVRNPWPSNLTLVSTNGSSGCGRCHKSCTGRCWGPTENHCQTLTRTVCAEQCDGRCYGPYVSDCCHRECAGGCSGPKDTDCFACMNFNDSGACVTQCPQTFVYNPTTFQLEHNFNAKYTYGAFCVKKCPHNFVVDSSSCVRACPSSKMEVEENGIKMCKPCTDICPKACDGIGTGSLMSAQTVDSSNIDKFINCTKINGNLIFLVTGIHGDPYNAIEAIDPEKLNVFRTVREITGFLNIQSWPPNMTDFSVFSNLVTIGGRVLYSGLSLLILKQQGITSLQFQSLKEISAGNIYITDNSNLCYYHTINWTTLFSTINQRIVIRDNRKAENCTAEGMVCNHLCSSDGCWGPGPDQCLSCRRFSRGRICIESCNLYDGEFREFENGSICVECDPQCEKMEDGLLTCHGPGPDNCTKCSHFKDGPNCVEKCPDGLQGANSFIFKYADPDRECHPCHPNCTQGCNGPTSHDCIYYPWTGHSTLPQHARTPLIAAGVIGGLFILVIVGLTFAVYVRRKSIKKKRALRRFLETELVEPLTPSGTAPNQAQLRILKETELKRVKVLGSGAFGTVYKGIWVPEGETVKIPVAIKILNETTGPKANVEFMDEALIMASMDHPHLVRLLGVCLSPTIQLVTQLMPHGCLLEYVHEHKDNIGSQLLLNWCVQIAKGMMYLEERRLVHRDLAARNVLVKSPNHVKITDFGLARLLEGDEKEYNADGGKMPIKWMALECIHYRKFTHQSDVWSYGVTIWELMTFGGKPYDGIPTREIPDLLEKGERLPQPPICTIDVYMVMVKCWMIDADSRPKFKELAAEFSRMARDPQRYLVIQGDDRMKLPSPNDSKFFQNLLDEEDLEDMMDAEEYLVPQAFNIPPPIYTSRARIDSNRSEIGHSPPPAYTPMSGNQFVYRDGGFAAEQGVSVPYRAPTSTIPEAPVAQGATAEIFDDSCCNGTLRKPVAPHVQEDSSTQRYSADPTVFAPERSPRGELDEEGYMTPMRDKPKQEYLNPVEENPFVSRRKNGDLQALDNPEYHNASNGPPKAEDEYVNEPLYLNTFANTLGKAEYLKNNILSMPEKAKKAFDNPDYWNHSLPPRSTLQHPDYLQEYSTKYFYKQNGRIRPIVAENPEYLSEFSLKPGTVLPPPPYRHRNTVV

Consider `O=C(Nc1cccc(C(F)(F)F)c1)c1ccc(C2CC2)c(-c2ccc3nc(Nc4cnn(C5CC5)c4)ncc3c2)c1` [Compound S15, 4-cyclopropyl-3-(2-((1-cyclopropyl-1H-pyrazol-4-yl)amino)quinazolin-6-yl)-N-(3-(trifluoromethyl)phenyl)benzamide], for which, in assay [1], the “mRNA levels of pro-inflammatory cytokines TNF-α, IL-1β and IL-6 in lung tissue” value was “significantly reduce the levels of pro-inflammatory cytokines in a dose-dependent manner”. Besides, the IC50 (usually the midpoint of a concentration-inhibition curve) on PDGFR-β was above 1000 nM. Besides, on ErbB4, the IC50 is above 10 nM. For the same compound, in assay [2], the “reduction of expression (mRNA) of Collagen1-α1” value is “about 90%”, the “reduction of expression (mRNA) of TGF-β1” value was “about 90%” and the “reduction of expression (mRNA) of α-SMA” value is listed as “about 90%”.
